Measurements published in patent US20050267020A1, “Polypeptides derived from inducible hsp70 and pharmaceutical compositions containing the same” (priority 2001, published 2005).

Molecular target: T1, HLA-A*0201 (Homo sapiens, UniProt P04439, D140Y/D185E/D98H/E176V/E277Q/G131W/G231S/I119V/I121R/I166T/I218V/L300P/L318F/N151K/N90K/P208A/P217A/Q86G/Q94H/R138H/R169H/T345S)
T1 construct: Tap−/− cells expressing the studied HLA-class I molecule; endogenous in cells; host or cells: T2 cells (Tap-/-, HLA-A*0201)
Assay: Measurement of peptide relative affinity to HLA-A*0201 on T2 cells
Format: binding
Settings: Relative Affinity determination
Procedure: Measurement of Peptide Relative Affinity to HLA class I. Tap−/− cells expressing the studied HLA-class I molecule (3×10^5 cells/mL) were incubated with various concentrations of peptides ranging from 100 μM to 0.1 μM in serum-free RPMI 1640 medium supplemented with 100 ng/ml of human β-2m at 37° C. for 16 hours. Cells were then washed twice and stained with the specific anti-class I mAb followed by FITC conjugated goat anti mouse Ig mAb to quantify the expression of HLA-A*0201. For each peptide concentration, the HLA-specific staining was calculated as the % of the staining obtained with 100 μM of the reference peptide. The relative affinity (RA) is determined as: RA=(Concentration of each peptide that induces 20% of HLA expression/Concentration of the reference peptide that induces 20% of HLA expression). The lower the RA-value, the stronger is the peptide binding to HLA. The mean RA value for each peptide is determined from at least three independent experiments. […]
The affinity of each peptide was assayed experimentally by determination of the Relative Affinity: the necessary peptide dose to stabilise a reference quantity of HLA-A*0201 molecules at the surface of T2 cells; and the stability of each peptide was assayed by determination of the half-life of the peptide/HLA-A*0201 molecule complex (DC50: dissociation complex 50).

YLGYPVTNAV [HSP 134(10)]
affinity for HLA-A*0201 (in words): strong affinity
